Patent US20250051319A1 (AUGUSTINE THERAPEUTICS, priority 2021, published 2025)

Columns and labels:
[1] = target: T1, human full-length recombinant HDAC6 (Homo sapiens (Human), UniProt Q9UBN7); experiment: HDAC6 enzymatic activity assay (Reaction Biology Corporation, RHKKAc fluorogenic peptide); format: biochemical; conditions: Reaction Biology Corporation protocol, RHKKAc fluorogenic peptide 10 μM; read-out: HDAC6 biochem
Protocol: (§1) Dose response testing of HDAC6 and HDAC 1 were run at Reaction Biology Corporation (RBC). Inhibition of HDAC enzymes was performed using N-terminal GST tagged human full-length recombinant HDAC6 (H88-30G, SignalChem) and C-terminal FLAG His tag human full-length recombinant HDAC1 produced in insect cells (KDA-21-365, RBC). Enzyme reactions were run in 50 mM Tris-HCl, pH8.0, 137 mM NaCl, 2.7 mM KCl, and 1 mM MgCl2 with 1 mg/ml BSA, 1% DMSO freshly added. 2× enzyme was delivered in the wells of the reaction plate except for the “no enzyme” control wells. In the latter, buffer was added. Compounds in 100% DMSO were delved into the enzyme mixture by acoustic technology (Echo550). Plates are spun down and compounds were incubation with the enzyme for 10 min at room temperature. 2× Fluorogenic peptide from p53 residues 379-382 (RHKKAc, 10 μM final concentration) was added in all wells to initiate the reaction, followed by 1 h incubation at 30° C. Developer containing Trichostatin A was added to stop the reaction and generate fluorescent color. A kinetic measurement was carried out for 20 min with 5 min interval on the Envision plate reader (Perkin Elmer, Ex/Em=360/460). End point reading i.e., plateau of the development reaction was used for analysis. Data was reported by RBC as percentage enzyme activity. Percentage inhibition was calculated by subtracting percentage enzyme activity from 100. IC50 values were calculated using GraphPad Prism 9 based on the log(inhibitor) vs. response—Variable slope (four parameters) equation.

[2] = target: catalytic domain 2 (CD2) of HDAC6 (Homo sapiens (Human), UniProt Q9UBN7); experiment: Cellular target engagement assay - NanoBRET; format: cell-based; conditions: NanoLuc-HDAC6(CD2) in HEK293T cells, 2 hours, read-out: IC50 (HDAC6(CD2) interaction)
catalytic domain 2 (CD2) of HDAC6, sequence (Q9UBN7 482-800): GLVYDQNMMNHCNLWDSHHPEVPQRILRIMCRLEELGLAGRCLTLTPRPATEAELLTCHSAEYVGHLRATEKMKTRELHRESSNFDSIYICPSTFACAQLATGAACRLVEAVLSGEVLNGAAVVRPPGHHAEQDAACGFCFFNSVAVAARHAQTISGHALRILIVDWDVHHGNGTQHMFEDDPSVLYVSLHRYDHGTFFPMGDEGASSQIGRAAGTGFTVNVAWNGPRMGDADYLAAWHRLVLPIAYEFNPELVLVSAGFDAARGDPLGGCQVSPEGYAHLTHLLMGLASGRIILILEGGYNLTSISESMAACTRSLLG

[3] = target: T2, human full-length recombinant HDAC1 (Homo sapiens (Human), UniProt Q13547); experiment: HDAC1 enzymatic activity assay (Reaction Biology Corporation, RHKKAc fluorogenic peptide); format: biochemical; conditions: Reaction Biology Corporation protocol, RHKKAc fluorogenic peptide 10 μM; read-out: HDAC1 biochem
T2 sequence (Q13547 whole entry): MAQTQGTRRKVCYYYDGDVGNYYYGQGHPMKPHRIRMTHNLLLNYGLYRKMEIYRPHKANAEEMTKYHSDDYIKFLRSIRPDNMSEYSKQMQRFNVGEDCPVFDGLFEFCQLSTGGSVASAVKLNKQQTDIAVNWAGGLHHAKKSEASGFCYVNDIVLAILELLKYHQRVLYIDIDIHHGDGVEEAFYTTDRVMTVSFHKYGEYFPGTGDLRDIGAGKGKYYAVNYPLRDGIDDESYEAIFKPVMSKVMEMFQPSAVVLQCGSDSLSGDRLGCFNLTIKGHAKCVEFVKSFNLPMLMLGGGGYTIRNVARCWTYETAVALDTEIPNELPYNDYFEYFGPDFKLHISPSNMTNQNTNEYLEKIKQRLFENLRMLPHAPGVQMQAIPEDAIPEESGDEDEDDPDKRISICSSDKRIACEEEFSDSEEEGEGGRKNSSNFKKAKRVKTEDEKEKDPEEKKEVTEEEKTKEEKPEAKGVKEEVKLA
Protocol: as §1

[4] = target: T1, human full-length recombinant HDAC6; experiment: HDAC6 enzymatic activity assay (alternative protocol, Ac-Gly-Ala-Lys(Ac)-AMC); format: biochemical; conditions: 5 nM enzyme, read-out: HDAC6 biochem
Procedure, shortened: (§2)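 Sf9-expressed enzymes (4 nM HDAC1, 5 nM HDAC6) preincubated 10 min at RT with compound, then 60 min with Ac-Gly-Ala-Lys(Ac)-AMC ([…] HDAC1, 40 µM HDAC6); pH 8.0 Tris buffers, HDAC6 buffer with EDTA and DTT. Trypsin/SAHA developer stop, fluorescence 360/450 nm after 15 min; normalized to DMSO (100%) and 10 μM SAHA (0%).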

[5] = target: T2, human full-length recombinant HDAC1; experiment: HDAC1 enzymatic activity assay (alternative protocol, Ac-Gly-Ala-Lys(Ac)-AMC); format: biochemical; conditions: 4 nM enzyme, read-out: HDAC1 biochem
Procedure, shortened: as §2

T1 sequence (Q9UBN7 whole entry): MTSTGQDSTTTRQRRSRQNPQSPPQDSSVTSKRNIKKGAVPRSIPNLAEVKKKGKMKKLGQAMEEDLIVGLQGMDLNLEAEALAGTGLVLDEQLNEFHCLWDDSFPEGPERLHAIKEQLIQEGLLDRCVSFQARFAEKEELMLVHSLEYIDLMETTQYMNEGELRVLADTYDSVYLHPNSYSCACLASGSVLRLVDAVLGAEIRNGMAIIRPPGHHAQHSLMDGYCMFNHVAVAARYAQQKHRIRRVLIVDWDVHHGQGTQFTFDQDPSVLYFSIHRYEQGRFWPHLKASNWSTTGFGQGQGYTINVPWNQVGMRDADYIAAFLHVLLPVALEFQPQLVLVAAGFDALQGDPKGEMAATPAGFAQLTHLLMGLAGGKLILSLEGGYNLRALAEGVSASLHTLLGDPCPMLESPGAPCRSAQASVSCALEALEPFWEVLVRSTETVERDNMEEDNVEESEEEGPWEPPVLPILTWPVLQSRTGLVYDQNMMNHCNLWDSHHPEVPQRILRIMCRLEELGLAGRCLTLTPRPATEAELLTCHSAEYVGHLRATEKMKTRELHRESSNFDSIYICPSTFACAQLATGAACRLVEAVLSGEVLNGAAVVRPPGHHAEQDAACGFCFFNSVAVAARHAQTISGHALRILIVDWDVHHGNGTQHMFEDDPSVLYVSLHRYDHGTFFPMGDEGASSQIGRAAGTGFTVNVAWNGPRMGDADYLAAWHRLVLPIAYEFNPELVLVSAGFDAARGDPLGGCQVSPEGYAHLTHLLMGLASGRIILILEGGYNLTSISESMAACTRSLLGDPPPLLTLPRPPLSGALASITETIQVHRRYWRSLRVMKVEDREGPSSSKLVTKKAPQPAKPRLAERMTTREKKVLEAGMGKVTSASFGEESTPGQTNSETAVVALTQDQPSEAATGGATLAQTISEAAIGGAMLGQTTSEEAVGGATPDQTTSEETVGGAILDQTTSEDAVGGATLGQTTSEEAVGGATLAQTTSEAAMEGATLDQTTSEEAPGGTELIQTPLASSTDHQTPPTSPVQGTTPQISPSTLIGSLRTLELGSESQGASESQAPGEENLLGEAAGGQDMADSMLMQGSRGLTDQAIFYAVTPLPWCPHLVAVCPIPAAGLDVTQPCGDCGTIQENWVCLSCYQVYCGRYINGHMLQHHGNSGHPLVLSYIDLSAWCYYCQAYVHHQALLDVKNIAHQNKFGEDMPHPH

| Structure (SMILES) | IC50 [1] [nM] | IC50 [2] [nM] | IC50 [3] [nM] | IC50 [4] [nM] | IC50 [5] [nM] |
| --- | --- | --- | --- | --- | --- |
| Cc1nc(SCC(=O)c2ccc(CNC(=O)CO)s2)c2cc(N3CCN(C)CC3)ccc2n1 [Compound 85, 2-hydroxy-N-((5-(2-((2-methyl-6-(4-methylpiperazin-1-yl)quinazolin-4-yl)thio)acetyl)thiophen-2-yl)methyl)acetamide] | ≤ 100 | ≤ 100 | > 10000 | – | – |
| COc1ccc2nc(C)nc(SCC(=O)c3ccc(CNC(=O)CO)s3)c2c1 [Example 60, 2-Hydroxy-N-((5-(2-((6-methoxy-2-methylquinazolin-4-yl)thio)acetyl)thiophen-2-yl)methyl)acetamide] | ≤ 100 | ≤ 100 | > 10000 | – | – |
| O=C(CO)NCc1ccc(C(=O)CSc2nc3cc(C(F)(F)F)ncc3o2)s1 [Compound 71, 2-hydroxy-N-((5-(2-((6-(trifluoromethyl)oxazolo[5,4-c]156yrrolid-2-yl)thio)acetyl)thiophen-2-yl)methyl)acetamide] | ≤ 100 | ≤ 100 | 1000 to 10000 | – | – |
| Cn1ncc2c(SCC(=O)c3ccc(CNC(=O)C4CC4)s3)ncnc21 [Example 31, N-((5-(2-((1-methyl-1H-pyrazolo[3,4-d]pyrimidin-4-yl)thio)acetyl)thiophen-2-yl)methyl)cyclopropanecarboxamide] | ≤ 100 | 1000 to 10000 | > 10000 | ≤ 100 | > 10000 |
| Cc1nc(SCC(=O)c2ccc(CNC(=O)CO)s2)c2cc(Cl)cc(F)c2n1 [Compound 142, N-((5-(2-((6-chloro-8-fluoro-2-methylquinazolin-4-yl)thio)acetyl)thiophen-2-yl)methyl)-2-hydroxyacetamide] | ≤ 100 | ≤ 100 | > 10000 | – | – |
| Cc1nc(SCC(=O)c2ccc(CNC(=O)CO)s2)c2cccnc2n1 [Compound 64, 2-hydroxy-N-((5-(2-((2-methylpyrido[2,3-d]pyrimidin-4-yl)thio)acetyl)thiophen-2-yl)methyl)acetamide] | ≤ 100 | ≤ 100 | > 10000 | – | – |
| O=C(CSc1nc(C(F)(F)F)nc2ncccc12)c1ccc(CNC(=O)C2CC2(F)F)s1 (centres unmarked) [Compound 114, 2,2-difluoro-N-((5-(2-((2-(trifluoromethyl)pyrido[2,3-d]pyrimidin-4-yl)thio)acetyl)thiophen-2-yl)methyl)cyclopropane-1-carboxamide] | ≤ 100 | ≤ 100 | > 10000 | – | – |
| Cc1nc(SCC(=O)c2ccc(CNC(=O)CO)s2)c2cc(F)cnc2n1 [Compound 124, N-((5-(2-((6-fluoro-2-methylpyrido[2,3-d]pyrimidin-4-yl)thio)acetyl)thiophen-2-yl)methyl)-2-hydroxyacetamide] | ≤ 100 | ≤ 100 | > 10000 | – | – |

Results, then the compound that gave them:

| IC50 [1] [nM] | IC50 [2] [nM] | IC50 [3] [nM] | IC50 [4] [nM] | IC50 [5] [nM] | Structure (SMILES) |
| --- | --- | --- | --- | --- | --- |
| ≤ 100 | ≤ 100 | > 10000 | – | – | O=C(CO)NCc1ccc(C(=O)CSc2nc(C(F)(F)F)nc3ncccc23)s1 [Compound 113, 2-hydroxy-N-((5-(2-((2-(trifluoromethyl)pyrido[2,3-d]pyrimidin-4-yl)thio)acetyl)thiophen-2-yl)methyl)acetamide] |
| ≤ 100 | ≤ 100 | > 10000 | – | – | COCCn1cc2c(SCC(=O)c3ccc(CNC(=O)CO)s3)nc(C(F)(F)F)nc2n1 [Compound 132, 2-hydroxy-N-((5-(2-((2-(2-methoxyethyl)-6-(trifluoromethyl)-2H-pyrazolo[3,4-d]pyrimidin-4-yl)thio)acetyl)thiophen-2-yl)methyl)acetamide] |
| ≤ 100 | ≤ 100 | > 10000 | – | – | Cc1nc(SCC(=O)c2ccc(CNC(=O)CO)s2)c2cc(C(F)(F)F)cnc2n1 [Compound 119, 2-hydroxy-N-((5-(2-((2-methyl-6-(trifluoromethyl)pyrido[2,3-d]pyrimidin-4-yl)thio)acetyl)thiophen-2-yl)methyl)acetamide] |
| ≤ 100 | ≤ 100 | 500 to 1000 | – | – | O=C(CO)NCc1ccc(C(=O)CSc2nc3nc(C(F)(F)F)ccc3o2)s1 [Compound 72, 2-hydroxy-N-((5-(2-((5-(trifluoromethyl)oxazolo[4,5-b]156yrrolid-2-yl)thio)acetyl)thiophen-2-yl)methyl)acetamide] |
| ≤ 100 | ≤ 100 | > 10000 | – | – | CCn1cc2c(SCC(=O)c3ccc(CNC(=O)CO)s3)nc(C(F)(F)F)nc2n1 [Compound 135, N-((5-(2-((2-ethyl-6-(trifluoromethyl)-2H-pyrazolo[3,4-d]pyrimidin-4-yl)thio)acetyl)thiophen-2-yl)methyl)-2-hydroxyacetamide] |
| ≤ 100 | ≤ 100 | > 10000 | – | – | Cn1cc2c(SCC(=O)c3ccc(CNC(=O)CO)s3)nc(C(F)(F)F)nc2n1 [Compound 61, 2-hydroxy-N-((5-(2-((2-methyl-6-(trifluoromethyl)-2H-pyrazolo[3,4-d]pyrimidin-4-yl)thio)acetyl)thiophen-2-yl)methyl)acetamide] |
| ≤ 100 | ≤ 100 | > 10000 | – | – | Cn1ncc2c(SCC(=O)c3ccc(CNC(=O)CO)s3)nc(C(F)(F)F)nc21 [Compound 74, 2-hydroxy-N-((5-(2-((1-methyl-6-(trifluoromethyl)-1H-pyrazolo[3,4-d]pyrimidin-4-yl)thio)acetyl)thiophen-2-yl)methyl)acetamide] |
